We go through ten molecules from ChEMBL document CHEMBL4665805, “Expression of the Clifednamide Biosynthetic Pathway in Streptomyces Generates 27,28-seco-Derivatives” (J Nat Prod, 2020).

pIC50: −log10 of the molar value. Calls of active or inactive are those of the source. The calls are words filed in the database; no cut-off is given here.

One experiment has as its system Xanthomonas oryzae. In words: Antimicrobial activity against Xanthomonas oryzae pv. oryzicola RS105 at 20 microg/disk by disc diffusion assay. Format: functional. As to conditions: dose 20.0 µg/disk. A general note: Agar diffusion results depend on both activity and mobility in agar.
In another experiment the test system is Staphylococcus aureus. In words: Antimicrobial activity against Staphylococcus aureus ATCC 25923 at 20 microg/disk by disc diffusion assay. In kind it is functional, organism-based. As to conditions: dose 20.0 µg/disk.
A further experiment relates to Fusarium graminearum. In words: Antimicrobial activity against Fusarium graminearum at 50 microg/disk by disc diffusion assay. The conditions noted are these: dose 50.0 µg/disk. Format: functional, organism-based.
In a further experiment the test system is Streptomyces sp. The experiment can be described thus: Antimicrobial activity against Streptomyces sp. S001 at 20 microg/disk by disc diffusion assay. Format: functional, organism-based. As to conditions: dose 20.0 µg/disk.
For another experiment, the system named is Salmonella typhimurium. The experiment can be described thus: Antimicrobial activity against Salmonella enterica serovar Typhimurium UK-1 x8956 at 20 microg/disk by disc diffusion assay. Format: functional, organism-based. The conditions noted are these: Salmonella enterica subsp. enterica serovar Typhimurium, dose 20.0 µg/disk.
The next experiment relates to Pythium aphanidermatum. In words: Antimicrobial activity against Pythium aphanidermatum at 50 microg/disk by disc diffusion assay. The conditions noted are these: dose 50.0 µg/disk. In kind it is functional, organism-based.
The next experiment has as its system Bacillus subtilis. In words: Antimicrobial activity against Bacillus subtilis at 20 microg/disk by disc diffusion assay. Format: functional, organism-based. The conditions noted are these: dose 20.0 µg/disk.
The subject of the next experiment is A549. In words: Cytotoxicity against human A549 cells assessed as reduction in cell viability by MTT assay. Format: functional, cell-based. A general note: Tetrazolium dyes change colour on reduction, which living cells bring about.
In the next experiment the test system is MIA PaCa-2. In words: Cytotoxicity against human MIA PaCa-2 cells assessed as reduction in cell viability by MTT assay. In kind it is functional, cell-based.

With `CC[C@H]1[C@@H]2C=C[C@H](/C=C/C=C/C(N)=O)[C@H](/C=C/C=C/C(=O)C3=C(O)[C@H](CCC(=O)O)NC3=O)[C@H]2C[C@H]1C`, the outcome in the experiment on Xanthomonas oryzae, in the experiment with Staphylococcus aureus, in the experiment on Fusarium graminearum, in the experiment with Streptomyces sp., in the experiment with Salmonella typhimurium and with Pythium aphanidermatum was inactive. Further, the result with Bacillus subtilis was inactive.

A word on the pIC50: it is −log10 of the IC50, conventionally taken in molar units. With `CC(=O)[C@H]1[C@@H]2C=C[C@@H]3[C@H]4C/C=C\C(=O)NCC[C@H](O)[C@@H]5NC(=O)C(=C5O)C(=O)/C=C/[C@@H]4C[C@@H]3[C@H]2C[C@H]1C`, the result with Xanthomonas oryzae, in the experiment on Staphylococcus aureus, with Fusarium graminearum, with Streptomyces sp., in the experiment with Salmonella typhimurium and with Pythium aphanidermatum was inactive. Also, in the experiment on Bacillus subtilis, the result was inactive. Also, the pIC50 was 6.28 in the experiment on A549 and 6.00 in the experiment with MIA PaCa-2.

Regarding `CC(=O)[C@H]1[C@@H]2C=C[C@@H]3/C=C/C=C/C(=O)NCCC[C@@H]4NC(=O)C(=C4O)C(=O)/C=C/C=C/[C@@H]3[C@H]2C[C@H]1C`, the result in the experiment on Xanthomonas oryzae, in the experiment on Staphylococcus aureus, with Fusarium graminearum, in the experiment on Streptomyces sp., in the experiment with Salmonella typhimurium and with Pythium aphanidermatum was inactive. Besides, in the experiment on Bacillus subtilis, the result was inactive.

Take `C[C@@H]1C[C@H]2[C@@H](C=C[C@@H]3[C@H]4C/C=C\C(=O)NCC[C@H](O)[C@@H]5NC(=O)C(=C5O)C(=O)/C=C/[C@@H]4C[C@@H]32)[C@@H]1C(=O)CO`: the outcome in the experiment with Xanthomonas oryzae, with Staphylococcus aureus, in the experiment with Fusarium graminearum, in the experiment on Streptomyces sp., in the experiment on Salmonella typhimurium and with Pythium aphanidermatum was inactive. Besides, the outcome in the experiment with Bacillus subtilis was inactive.

On to `CC(=O)[C@H]1[C@@H]2C=C[C@H](/C=C/C=C/C(N)=O)[C@H](/C=C/C=C/C(=O)C3=C(O)[C@H](CCC(=O)O)NC3=O)[C@H]2C[C@H]1C`, for which the outcome in the experiment with Xanthomonas oryzae, in the experiment with Staphylococcus aureus, in the experiment with Fusarium graminearum, in the experiment on Streptomyces sp., with Salmonella typhimurium and with Pythium aphanidermatum was inactive. Also, the result with Bacillus subtilis was inactive. In addition, the pIC50 in the experiment on MIA PaCa-2 is 5.02.

Regarding `CC(=O)[C@H]1[C@@H]2C=C[C@@H]3/C=C/C=C/C(=O)NCC[C@H](O)[C@@H]4NC(=O)C(=C4O)C(=O)/C=C/C=C/[C@@H]3[C@H]2C[C@H]1C`, the result in the experiment with Xanthomonas oryzae, in the experiment with Staphylococcus aureus, in the experiment with Fusarium graminearum, with Streptomyces sp., in the experiment with Salmonella typhimurium and with Pythium aphanidermatum was inactive. Also, the result in the experiment on Bacillus subtilis was inactive.

In the case of `COc1cccc2c1C(=O)c1c(O)c3c(c(O)c1C2=O)C[C@@](O)(C(=O)CO)C[C@@H]3O[C@H]1C[C@H](N)[C@H](O)[C@H](C)O1` [DOXORUBICIN], in the experiment on MIA PaCa-2, the pIC50 is 6.37.

Regarding `CC(=O)[C@H]1[C@@H]2C=C[C@@H]3[C@@H](C/C=C\C(N)=O)[C@H](/C=C/C(=O)C4=C(O)[C@H](CCC(=O)O)NC4=O)C[C@@H]3[C@H]2C[C@H]1C`, the outcome in the experiment on Xanthomonas oryzae, with Staphylococcus aureus, in the experiment on Fusarium graminearum, with Streptomyces sp., in the experiment with Salmonella typhimurium and with Pythium aphanidermatum was inactive. In the experiment on Bacillus subtilis, the result was inactive.

Take `CC(O)[C@H]1[C@@H]2C=C[C@@H]3/C=C/C=C/C(=O)NCC[C@H](O)[C@@H]4NC(=O)C(=C4O)C(=O)/C=C/C=C/[C@@H]3[C@H]2C[C@H]1C` (some centres undefined): the result in the experiment with Xanthomonas oryzae, with Staphylococcus aureus, in the experiment with Fusarium graminearum, in the experiment with Streptomyces sp., in the experiment with Salmonella typhimurium and in the experiment with Pythium aphanidermatum was inactive. For the same molecule, the outcome in the experiment on Bacillus subtilis was inactive.

In the case of `CC(=O)[C@H]1[C@@H]2C=C[C@@H]3[C@H]4C/C=C\C(=O)NCCC[C@@H]5NC(=O)C(=C5O)C(=O)/C=C/[C@@H]4C[C@@H]3[C@H]2C[C@H]1C`, the outcome in the experiment with Xanthomonas oryzae, in the experiment on Staphylococcus aureus, with Fusarium graminearum, in the experiment with Streptomyces sp., in the experiment on Salmonella typhimurium and with Pythium aphanidermatum was inactive. Moreover, the outcome in the experiment on Bacillus subtilis was inactive. Also, the figures for the pIC50 in the experiment on A549 and with MIA PaCa-2 were 5.85 and 5.62, respectively.
